Test results published in ChEMBL document CHEMBL4382273, “Antiprotozoal Isoprenoids from Salvia hydrangea” (J Nat Prod, 2018).

Key:
[1] = Selectivity index, ratio of IC50 for rat L6 cells to IC50 for trypomastigote stage of Trypanosoma brucei rhodesiense STIB900; assay type: toxicity; settings: read-out: Ratio IC50
[2] = test system: Trypanosoma brucei rhodesiense; test: Antiprotozoal activity against trypomastigote stage of Trypanosoma brucei rhodesiense STIB900 after 72 hrs by Alamar Blue assay; assay type: functional, organism-based; settings: STIB900, 72 h
Leishmania donovani = test: Antileishmanial activity against Leishmania donovani MHOM/ET/67/L82 axenic amastigotes after 72 hrs by alamar blue staining based fluorescence assay; assay type: functional, organism-based; settings: MHOM/ET/67/L82, 72 h
Trypanosoma cruzi = test: Antitrypanosomal activity against Trypanosoma cruzi Tulahuen C4 amastigotes harboring LacZ infected in rat L6 cells after 96 hrs by CPRG/Nonidet reagent based photometric analysis; assay type: functional, organism-based; settings: Tulahuen C4, L6, 96 h
[3] = Selectivity index, ratio of IC50 for rat L6 cells to IC50 for Leishmania donovani MHOM/ET/67/L82 axenic amastigotes; assay type: toxicity; settings: read-out: Ratio IC50
Plasmodium falciparum = test: microbe, parasite or virus in culture; settings: NF54
Description: Antiplasmodial activity against IEF stage of Plasmodium falciparum NF54 assessed as reduction in [3H]hypoxanthine incorporation preincubated for 48 hrs followed by [3H]hypoxanthine addition measured after 24 hrs by liquid scintillation counting method

L6 = test: Cytotoxicity against rat L6 cells after 72 hrs by alamar blue assay; assay type: cell-based; settings: L6, 72 h
[4] = Selectivity index, ratio of IC50 for rat L6 cells to IC50 for Trypanosoma cruzi Tulahuen C4 amastigotes harboring LacZ infected in rat L6 cells; assay type: toxicity, cell-based; settings: read-out: Ratio IC50
[5] = Selectivity index, ratio of IC50 for rat L6 cells to IC50 for IEF stage of Plasmodium falciparum NF54; assay type: toxicity; settings: read-out: Ratio IC50

Structure (SMILES)	selectivity ratio [1]	IC50 [2]	IC50 (Leishmania donovani)	IC50 (Trypanosoma cruzi)	selectivity ratio [3]	IC50 (Plasmodium falciparum)	IC50 (L6)	selectivity ratio [4]	selectivity ratio [5]
CC(C)C1=C2OC(C)(C)[C@H]3C[C@@]45O[C@]4(C)[C@H](O)C[C@@]4(CC[C@H]6C(C)(C)CCC[C@]67C[C@@]45[C@@]23O7)C1=O	0.6	74.6 µM	44.1 µM	19.8 µM	1.1	3.6 µM	46.9 µM	2.4	12.9
C=CC1=C[C@@H]2[C@H]3C(C)=CO[C@]45O[C@]67CCCC(C)(C)[C@@H]6CC[C@](C1)(C(=O)[C@]3(C(C)C)C4=O)[C@]25C7	1.7	24.6 µM	15.6 µM	47.9 µM	2.7	1.9 µM	41.6 µM	0.9	22
CC1=C2C[C@@H]3C(C)(C)O[C@]45O[C@@]4(C(C)C)C(=O)[C@]4(CC[C@H]6C(C)(C)CCC[C@]67C[C@]24[C@]35O7)CC1=O	2.4	30.5 µM	12.3 µM	11.5 µM	5.9	1.3 µM	72.2 µM	6.3	56.9
CC(C)=C[C@H]1[C@@H]2C(C)=CC[C@]34CC[C@H]5C(C)(C)CCC[C@]56C[C@]23[C@@](O)(O6)C(=O)[C@]1(C(C)C)C4=O	0.7	66.9 µM	21.3 µM	35.8 µM	2.2	1.1 µM	47.2 µM	1.3	44.2
CC1=C2[C@H](O)[C@@H]3C(C)(C)OC4=C(C(C)C)C(=O)[C@]5(CC[C@H]6C(C)(C)CCC[C@]67C[C@]25[C@@]43O7)CC1=O	0.3	45.3 µM	7.5 µM	3.8 µM	1.8	7.5 µM	13.6 µM	3.6	1.8
CC(=O)[C@@]12C[C@H]3C(C)(C)OC4=C(C(C)C)C(=O)[C@]5(CC[C@H]6C(C)(C)CCC[C@]67C[C@@]51[C@@]43O7)C[C@H]2O	0.5	85.8 µM	12.3 µM	33.9 µM	3.3	7.9 µM	41.1 µM	1.2	5.2
CC1=C2C[C@@H]3C(C)(C)OC4=C(C(C)C)C(=O)[C@]5(CC[C@H]6C(C)(C)CCC[C@]67C[C@]25[C@@]43O7)CC1=O	0.7	56 µM	15.5 µM	3.5 µM	2.4	0.6 µM	37.2 µM	10.7	62.2
C[C@@H]1CC[C@H]2[C@@H](C)C(=O)O[C@@H]3O[C@@]4(C)CC[C@@H]1[C@]32OO4 [ARTEMISININ]						0.008 µM			
O=C(Cn1ccnc1[N+](=O)[O-])NCc1ccccc1 [BENZNIDAZOLE]				5.1 µM					
Nc1nc(N)nc(Nc2ccc([As]3SCC(CO)S3)cc2)n1 (configuration not stated) [MELARSOPROL]		0.04 µM							
CCCCCCCCCCCCCCCCOP(=O)([O-])OCC[N+](C)(C)C [MILTEFOSINE]			0.9 µM						
